Measurements from paper PMC3108470 (Journal of Medicinal Chemistry, 2011).

Experiments:
[1] = target: ΔF508-CFTR (Homo sapiens, UniProt P13569, DEL508-508); experiment: ΔF508-CFTR potentiator assay, HS-YFP fluorescence quenching; format: cell-based; conditions: for nH (Hill coefficient): FRT cells, forskolin 20 μM, Hill fit; for activity on ΔF508-CFTR: inactive up to 20 μM
[2] = system: guinea pig ileum longitudinal smooth muscle; experiment: Relaxant activity on K+-depolarized
[3] = system: guinea pig left atrium; experiment: Negative inotropic activity in isolated left atrium driven at 1 Hz
[4] = system: guinea pig right atrium; conditions: cited from earlier work; for intrinsic activity, chronotropic effect: at the highest concentration studied
[5] = system: guinea pig left atrium; conditions: cited from earlier work; for intrinsic activity, inotropic effect: at the highest concentration studied
[6] = system: guinea pig aortic strip; experiment: Vasorelaxant activity, calcium-induced contraction of K+-depolarized; conditions: result in words

| nH (Hill coefficient) [1] | activity on ΔF508-CFTR [1] | SMILES | other results |
| --- | --- | --- | --- |
| 0.66 |  | CCOC(=O)C1=C(C)NC(C)=C(C(=O)OCC)C1c1c(C(F)(F)F)nc2sccn12 [Compound 16, Diethyl 2,6-Dimethyl-4-(6-(trifluoromethyl)imidazo[2,1-b]thiazol-5-yl)-1,4-dihydropyridine-3,5-dicarboxylate] | GPILSM relaxant potency, times less potent than nifedipine [2]: about 65 times |
| 2.15 |  | COC(=O)C1=C(C)NC(C)=C(C(=O)OC)C1c1c(-c2ccc(C(F)(F)F)cc2)nc2sccn12 [Compound 17, Dimethyl 2,6-Dimethyl-4-(6-(4-(trifluoromethyl)phenyl)imidazo[2,1-b]thiazol-5-yl)-1,4-dihydropyridine-3,5-dicarboxylate] | negative inotropic effect, times greater than that of nifedipine [3]: about 2.6 times; GPILSM relaxant potency, times less potent than nifedipine [2]: about 3 times |
| 1.69 |  | CCOC(=O)C1=C(C)NC(C)=C(C(=O)OCC)C1c1c(-c2ccc(C(F)(F)F)cc2)nc2sccn12 [Compound 18, Diethyl 2,6-Dimethyl-4-(6-(4-(trifluoromethyl)phenyl)imidazo[2,1-b]thiazol-5-yl)-1,4-dihydropyridine-3,5-dicarboxylate] |  |
| 1.14 |  | C=CCOC(=O)C1=C(C)NC(C)=C(C(=O)OCC=C)C1c1c(-c2ccc(C(F)(F)F)cc2)nc2sc(C)c(C)n12 [Compound 19, Diallyl 4-(2,3-Dimethyl-6-(4-(trifluoromethyl)phenyl)imidazo[2,1-b]thiazol-5-yl)-2,6-dimethyl-1,4-dihydropyridine-3,5-dicarboxylate] | negative inotropic over chronotropic selectivity ratio ([3]; EC50 chronotropic / EC50 inotropic): about 33 fold |
| 1.8 |  | COC(=O)C1=C(C)NC(C)=C(C(=O)OC)C1c1c(-c2ccc(OC(F)(F)F)cc2)nc2sccn12 [Compound 20, Dimethyl 2,6-Dimethyl-4-(6-(4-(trifluoromethoxy)phenyl)imidazo[2,1-b]thiazol-5-yl)-1,4-dihydropyridine-3,5-dicarboxylate] | GPILSM relaxant potency, times less potent than nifedipine [2]: about 3 times |
| 1.09 |  | C=CCOC(=O)C1=C(C)NC(C)=C(C(=O)OCC=C)C1c1c(-c2ccc(OC(F)(F)F)cc2)nc2sccn12 [Compound 21, Diallyl 2,6-Dimethyl-4-(6-(4-(trifluoromethoxy)phenyl)imidazo[2,1-b]thiazol-5-yl)-1,4-dihydropyridine-3,5-dicarboxylate] | GPILSM relaxant potency, times less potent than nifedipine [2]: about 3 times |
| 0.93 |  | CCOC(=O)C1=C(C)NC(C)=C(C(=O)OCC)C1c1c(-c2ccccc2)nc2sc(C)cn12 [Compound 22, Diethyl 2,6-Dimethyl-4-(2-methyl-6-phenylimidazo[2,1-b]thiazol-5-yl)-1,4-dihydropyridine-3,5-dicarboxylate] |  |
|  | inactive ^b | COC(=O)C1=C(C)NC(C)=C(C(=O)OC)C1c1c(-c2ccccc2)nc2n1CCS2 [Compound 23, Dimethyl 2,6-Dimethyl-4-(6-phenyl-2,3-dihydroimidazo[2,1-b]thiazol-5-yl)-1,4-dihydropyridine-3,5-dicarboxylate] |  |
|  | inactive ^b | C=CCOC(=O)C1=C(C)NC(C)=C(C(=O)OCC=C)C1c1c(-c2cc(OC)ccc2OC)nc2sccn12 [Compound 24, Diallyl 4-(6-(2,5-Dimethoxyphenyl)imidazo[2,1-b]thiazol-5-yl)-2,6-dimethyl-1,4-dihydropyridine-3,5-dicarboxylate] |  |
| 0.86 |  | CCOC(=O)C1=C(C)NC(C)=C(C(=O)OCC)C1c1c(Cl)nc2sc(C)cn12 [Compound 25, Diethyl 4-(6-Chloro-2-methylimidazo[2,1-b]thiazol-5-yl)-2,6-dimethyl-1,4-dihydropyridine-3,5-dicarboxylate] | GPILSM relaxant potency, times less potent than nifedipine [2]: about 65 times |
| 0.44 |  | CCOC(=O)C1=C(C)NC(C)=C(C(=O)OCC)C1c1c(-c2ccc(Cl)c(Cl)c2Cl)nc2sccn12 [Compound 26, Diethyl 2,6-Dimethyl-4-(6-(2,3,4-trichlorophenyl)imidazo[2,1-b]thiazol-5-yl)-1,4-dihydropyridine-3,5-dicarboxylate] | GPILSM relaxant potency, times less potent than nifedipine [2]: about 65 times |
| 1.89 |  | COC(=O)C1=C(C)NC(C)=C(C(=O)OC)C1c1c(C(F)(F)F)nc2sccn12 [Compound 27] |  |
| 0.88 |  | COC(=O)C1=C(C)NC(C)=C(C(=O)OC)C1c1c(C(F)(F)F)nc2sc(C)cn12 [Compound 28] | intrinsic activity, chronotropic effect [4]: < 40%; GPILSM relaxant potency, times less potent than nifedipine [2]: about 65 times; intrinsic activity, inotropic effect [5]: less than 50% |
| 1.55 |  | COC(=O)C1=C(C)NC(C)=C(C(=O)OC)C1c1c(C)nc2sc(Cl)cn12 [Compound 29] | negative inotropic effect, times greater than that of nifedipine [3]: about 2.6 times |
|  | inactive ^b | COC(=O)C1=C(C)NC(C)=C(C(=O)OC)C1c1c(C)nc2sc(C)cn12 [Compound 30] | intrinsic activity, chronotropic effect [4]: < 40%; intrinsic activity, inotropic effect [5]: less than 50% |
| 1.04 |  | COC(=O)C1=C(C)NC(C)=C(C(=O)OC)C1c1c(Cl)nc2sc(Cl)cn12 [Compound 31] | negative inotropic effect, times greater than that of nifedipine [3]: about 2.6 times |
|  | inactive ^b | COC(=O)C1=C(C)NC(C)=C(C(=O)OC)C1c1c(Cl)nc2sc(C)cn12 [Compound 32] |  |
| 0.82 |  | COC(=O)C1=C(C)NC(C)=C(C(=O)OC)C1c1c(Cl)nc2scc(C)n12 [Compound 33] | negative inotropic effect, times greater than that of nifedipine [3]: about 2.6 times |
| 1.32 |  | COC(=O)C1=C(C)NC(C)=C(C(=O)OC)C1c1c(Cl)nc2sc(C)c(C)n12 [Compound 34] |  |

| nH (Hill coefficient) [1] | activity on ΔF508-CFTR [1] | SMILES | other results |
| --- | --- | --- | --- |
|  | inactive ^b | COC(=O)C1=C(C)NC(C)=C(C(=O)OC)C1c1c(-c2ccccc2OC)nc2sccn12 [Compound 35] |  |
| 1.5 |  | COC(=O)C1=C(C)NC(C)=C(C(=O)OC)C1c1c(-c2cccc(OC)c2)nc2sccn12 [Compound 36] | GPILSM relaxant potency, times less potent than nifedipine [2]: about 65 times |
|  | inactive ^b | COC(=O)C1=C(C)NC(C)=C(C(=O)OC)C1c1c(-c2ccccc2OC(F)(F)F)nc2sccn12 [Compound 37] |  |
| 0.81 |  | COC(=O)C1=C(C)NC(C)=C(C(=O)OC)C1c1c(-c2cccc(OC(F)(F)F)c2)nc2sccn12 [Compound 38] | GPILSM relaxant potency, times less potent than nifedipine [2]: about 65 times |
| 1.01 |  | COC(=O)C1=C(C)NC(C)=C(C(=O)OC)C1c1c(-c2cccc(C(F)(F)F)c2)nc2sccn12 [Compound 39] | GPILSM relaxant potency, times less potent than nifedipine [2]: about 65 times |
|  | inactive ^b | COC(=O)C1=C(C)NC(C)=C(C(=O)OC)C1c1c(-c2cc(OC)ccc2OC)nc2sc(C)cn12 [Compound 40] |  |
|  | inactive ^b | COC(=O)C1=C(C)NC(C)=C(C(=O)OC)C1c1c(-c2cc(OC)ccc2OC)nc2sc(Cl)cn12 [Compound 41] |  |
|  | inactive ^b | CCc1cn2c(C3C(C(=O)OC)=C(C)NC(C)=C3C(=O)OC)c(-c3cc(OC)ccc3OC)nc2s1 [Compound 42] |  |
|  | inactive ^b | COC(=O)C1=C(C)NC(C)=C(C(=O)OC)C1c1c(-c2ccc(OC)c(OC)c2)nc2sccn12 [Compound 43] |  |
|  | inactive ^b | COC(=O)C1=C(C)NC(C)=C(C(=O)OC)C1c1c(-c2cc(OC)c(OC)c(OC)c2)nc2sc(Cl)cn12 [Compound 44] | intrinsic activity, chronotropic effect [4]: < 40%; intrinsic activity, inotropic effect [5]: less than 50% |
|  | inactive ^b | COC(=O)C1=C(C)NC(C)=C(C(=O)OC)C1c1c(-c2cc(OC)c([N+](=O)[O-])cc2OC)nc2sc(Cl)cn12 [Compound 45] | EC50 ([4]; read-out: EC50 of chronotropic negative activity, Probit analysis, ref RS1): 18.5 µM; GPILSM relaxant potency, times less potent than nifedipine [2]: about 65 times |
|  | inactive ^b | COC(=O)C1=C(C)NC(C)=C(C(=O)OC)C1c1c(-c2c(OC)ccc(OC)c2[N+](=O)[O-])nc2sccn12 [Compound 46] |  |
|  | inactive ^b | COC(=O)C1=C(C)NC(C)=C(C(=O)OC)C1c1c(-c2cc(OC)c(OC)cc2[N+](=O)[O-])nc2sccn12 [Compound 47] |  |
| 0.97 |  | CCOC(=O)C1=C(C)NC(C)=C(C(=O)OCC)C1c1cccc(Oc2ccccc2)c1 [Compound 48, reference compound] |  |
| 3.58 |  | C=CCOC(=O)C1=C(C)NC(C)=C(C(=O)OCC=C)C1c1ccc(C(C)(C)C)cc1 [Compound 49, reference compound] |  |
| 1.18 |  | C=CCOC(=O)C1=C(C)NC(C)=C(C(=O)OCC=C)C1/C=C/c1ccccc1OC [Compound 50, reference compound] |  |
| 1.3 |  | O=c1c(-c2ccc(O)cc2)coc2cc(O)cc(O)c12 [genistein, reference compound] | vascular effect in K+-depolarized (80 mM) vascular smooth muscle [6]: inactive; inotropic activity ([5]; up to 10 μM): positive inotropic activity |
| 2.58 |  | COC(=O)C1=C(C)NC(C)=C(C(=O)OC)C1c1ccccc1[N+](=O)[O-] [nifedipine, reference compound] | potency increase in nonvascular smooth muscle compared to aortic strips ([2]; GPILSM vs aortic strips): 6 times |
